Data reported in US9121859B2, “Compounds and methods for determination of FKBP-binding immunosuppressant drugs” (Siemens Healthcare Diagnostics Inc., priority 2012, dated 2015).

Assays:
[1] = tested on: endogenous specific binding proteins (FKBP) in whole blood; assay: ACMIA assay for sirolimus: release of sirolimus from endogenous binding substances in spiked whole blood by releasing agent; settings: for Drug concentration measured / Percent (%) displaced vs. SIRO: releasing agent 10 μg/mL
Procedure: (§1) Testing was carried out using the DIMENSION® RxL analyzer, available from Siemens Healthcare Diagnostics Inc., Newark Del. The instrument was employed using ACMIA immunoassay technology. The ACMIA assay method is described in U.S. Pat. Nos. 7,842,475, 7,186,518, 5,147,529, 5,128,103, 5,158,871, 4,661,408, 5,151,348, 5,302,532, 5,422,284, 5,447,870, and 5,434,051, the disclosures of which are incorporated herein in their entirety. In the embodiment of the ACMIA method used herein and discussed in more detail below, competition between tacrolimus analog on chrome particles and tacrolimus in patient samples for antibody for tacrolimus conjugated to an enzyme (the “conjugate”) is utilized to determine the amount of tacrolimus in patient samples. Conjugate that binds to the tacrolimus analog on chrome particles is removed by magnetic separation. The enzymatic activity from the conjugate remaining in the supernatant is measured and is directly proportional to the amount of tacrolimus in the patient sample. […] The enzymatic activity observed when no chrome particle is present is indicative of the total amount of enzymatic activity in the conjugate.
(§2) Preparation of pretreatment reagent solution. This pretreatment solution was prepared to contain an amount of releasing agent, 6.8 mg/mL PIPES 1.5 sodium salt (buffer), 0.3 mg/mL EDTA disodium (clot prevention agent), 1.0 mg/mL saponin (hemolytic agent), 0.2% PROCLIN® 300 (preservative), 0.024 mg/mL neomycin sulfate (preservative) and 0.99 mg/mL NaN3, pH 6.5. The amount of releasing agent in each of the pretreatment reagent solutions was 10 μg/mL. The releasing agent concentration in the final reaction mixture was equivalent to 46.7 μg/mL of the analog added from the sample.
Preparation of anti-sirolimus antibody-β-galactosidase conjugate. […] The antibody conjugate solution contained approximately 7.5 μg/mL anti-sirolimus antibody-β-galactosidase conjugate, 30 mg/mL protease free bovine serum albumin, 0.126 mg/mL MgCl2, 0.03 mL/mL of ethylene glycol, 35.14 mg/mL PIPES 1.5 sodium salt, 50 mg/mL NaCl and beta-gal mutein (inactivated β-galactosidase), pH 6.5.
Magnetic chrome particle preparation. Sirolimus chrome particles (immunoassay solid phase) were prepared by conjugating sirolimus-biotin conjugate to streptavidin-coated chrome particle (prepared in a manner similar to that described in U.S. Pat. No. 7,842,475). The chrome particle reagent contained approximately 2.5 mg/mL sirolimus chrome particle slurry, 60.8 mg/mL trehalose dihydrate and 7.2 mg/mL CARBOWAX®.
(§3) Preparation of samples. Aliquots of a whole blood pool are spiked with an amount of sirolimus so that the resulting concentration of sirolimus in the whole blood samples in the calibrators is as set forth in Table 1 (0.0, 5.1, 10.1, 20.6 and 31.6 ng/mL). Aliquots of a whole blood pool are spiked with an amount of tacrolimus so that the resulting concentration of […] (0.0, 2.6, 5.3, 11.6 and 30.1 ng/mL).
(§4) Pretreatment of samples. A set of samples was treated as follows: To each sample was added an amount of the pretreatment reagent solution from above for displacing sirolimus in the sample from endogenous specific binding proteins. The samples were incubated at 37° C. for a period of 140 minutes. Subsequently, each sample was subjected to the aforementioned assay, which is further described below; and signal (mAU) was measured and related to a concentration of analyte that represents the amount of free analyte (analyte that is not bound by endogeneous binding substances plus analyte that was displaced from endogeneous binding substances) in the samples.
Assay. The ACMIA assay for sirolimus was carried out as follows: 15 μL of a whole blood sample from above was mixed with the pretreatment reagent solution from above (Displacer) (Table 1) in a vessel on the DIMENSION® RxL analyzer.

[2] = tested on: monoclonal anti-sirolimus antibody (clone 155-M1); assay: Calculated cross-reactivity of releasing agent with antibody of the sirolimus ACMIA assay; format: binding
Procedure: (§5) Preparation of anti-sirolimus antibody-β-galactosidase conjugate. Monoclonal anti-sirolimus antibody (clone 155-M1 from Wyeth Pharmaceutical) was conjugated to β-galactosidase using a standard heterobifunctional SMCC (succinimidyl trans-4-(N-maleimidylmethyl)cyclohexane-1-carboxylate) linker according to known techniques. The antibody conjugate solution contained approximately 7.5 μg/mL anti-sirolimus antibody-β-galactosidase conjugate, 30 mg/mL protease free bovine serum albumin, 0.126 mg/mL MgCl2, 0.03 mL/mL of ethylene glycol, 35.14 mg/mL PIPES 1.5 sodium salt, 50 mg/mL NaCl and beta-gal mutein (inactivated β-galactosidase), pH 6.5.
(§6) Anti-sirolimus antibody-β-galactosidase conjugate (50 μL) was added next to each of the reaction vessels and the mixture was held for a period of time (10 to 15 minutes) and at a temperature of 43° C. to allow sirolimus, if present, to react with the antibody reagent. Chrome particles with immobilized sirolimus-biotin conjugate to streptavidin-coated chrome particle were added (50 μL) to each of the reaction vessels and were allowed to bind un-bound conjugate. […] The sirolimus-bound conjugate was detected by transferring the supernatant from each of the reaction vessels to a photometric cuvette and measuring the enzymatic rate of the conjugate in the presence of chlorophenol red-β-D-galactopyranoside (CPRG). The rate for each reaction vessel was measured bichromatically at 577 and 700 nm. The results are summarized in Table 1 under the categories: instrument signal observed for calibrators, drug concentration measured in ng/mL, percent (%) displaced vs. SIRO and calculated antibody cross-reactivity (percent (%) times 100). Cross-reactivity was based on the following: • 1) 70 μL of pretreatment reagent solution was added to the reaction medium versus 15 μL of sample, total reaction mixture volume=305 μL. • 2) 10 μg/mL of SIRO analog was in the pretreatment reagent solution. • 3) 10 μg/mL of SIRO analog from pretreatment reagent is equivalent to 46.7 μg/mL of SIRO analog added from sample (Calculation: 70 μL×10 μg/mL/15 μL=46.7 μg/mL) • 4) Measured sirolimus value at 0 ng/mL calibrator. • 5) Measure value/46.7 is % cross-reactivity.

[3] = tested on: endogenous specific binding proteins (FKBP) in whole blood; assay: ACMIA assay for tacrolimus: release of tacrolimus from endogenous binding substances in spiked whole blood by releasing agent; settings: for Drug concentration measured / Percent (%) displaced vs. SIRO: releasing agent 10 μg/mL
Procedure: as §1, §2
as §5, with “anti-tacrolimus” for “anti-sirolimus”, “1H6, see for example U.S. Pat. No. 7,078,495) is” for “155-M1 from Wyeth Pharmaceutical) was”, “contains” for “contained”
The chrome particle reagent contained approximately 2.5 mg/mL tacrolimus chrome particle slurry, 60.8 mg/mL trehalose dihydrate and 7.2 mg/mL CARBOWAX®.
as §3, §4
The above format for releasing an analyte (using the concentration of releasing agent (Displacer) shown) and conducting an assay for the analyte was repeated for samples containing tacrolimus.

[4] = tested on: monoclonal anti-tacrolimus antibody (clone 1H6); assay: Calculated cross-reactivity of releasing agent with antibody of the tacrolimus ACMIA assay; format: binding; settings: measured at calibrator of 0 ng/mL
Procedure: as §5, with “anti-tacrolimus” for “anti-sirolimus”, “1H6, see for example U.S. Pat. No. 7,078,495) is” for “155-M1 from Wyeth Pharmaceutical) was”, “contains” for “contained”
as §6, with “reagent.” for “reagent. Chrome particles with immobilized sirolimus-biotin conjugate to streptavidin-coated chrome particle were added (50 μL) to each of the reaction vessels and were allowed to bind un-bound conjugate.”, “cross-reactivity. […]” for “cross-reactivity.”

[5] = sirolimus calibrator 10.1 ng/mL
[6] = sirolimus calibrator 20.6 ng/mL
[7] = sirolimus calibrator 31.6 ng/mL
[8] = tacrolimus calibrator 2.6 ng/mL
[9] = tacrolimus calibrator 5.3 ng/mL
[10] = tacrolimus calibrator 11.6 ng/mL
[11] = tacrolimus calibrator 30.1 ng/mL

In the case of “Diels-Alder adducts of diethyl azidodicarboxylate (DAC) and sirolimus [Mixture IX + X]”, the “Displacement efficiency compared with mixture of V and VI” value ([1]; sirolimus assay, result in words) was “lower displacement efficiency”, the “Drug concentration measured” value ([1]; sirolimus calibrator 0.0 ng/mL) was 69.2 ng/mL and the “Drug concentration measured” value ([1]; sirolimus calibrator 5.1 ng/mL) was 93.8 ng/mL. The “Percent (%) displaced vs. SIRO” value ([1]; sirolimus calibrator 5.1 ng/mL) was 1844%, the “Drug concentration measured” value [1, 5] was 100.7 ng/mL and the “Percent (%) displaced vs. SIRO” value [1, 5] was 994%. The “Drug concentration measured” value [1, 6] was 119.9 ng/mL, the “Percent (%) displaced vs. SIRO” value [1, 6] was 584% and the “Drug concentration measured” value [1, 7] was 113.0 ng/mL. For the same substance, the “Percent (%) displaced vs. SIRO” value [1, 7] was 357%, the “Cross-reactivity with the sirolimus assay antibody” value ([2]; result in words) was “higher cross-reactivity” and the “Calculated antibody cross-reactivity (percent (%) times 100)” value ([2]; sirolimus assay, measured at calibrator of 0 ng/mL, measured value/46.7 μg/mL analog) was 14.82 % × 100. The “Displacement efficiency compared with mixture of V and VI” value ([3]; tacrolimus assay, result in words) was “lower displacement efficiency”, the “Drug concentration measured” value ([3]; tacrolimus calibrator 0.0 ng/mL) was 0.0 ng/mL and the “Drug concentration measured” value [3, 8] was 2.4 ng/mL. For the same substance, the “Percent (%) displaced vs. SIRO” value [3, 8] was 90%, the “Drug concentration measured” value [3, 9] was 4.1 ng/mL and the “Percent (%) displaced vs. SIRO” value [3, 9] was 78%. For the same substance, the “Drug concentration measured” value [3, 10] was 9.2 ng/mL, the “Percent (%) displaced vs. SIRO” value [3, 10] was 79% and the “Drug concentration measured” value [3, 11] was 22.6 ng/mL. For the same substance, the “Percent (%) displaced vs. SIRO” value [3, 11] was 75% and the “Calculated antibody cross-reactivity (percent (%) times 100)” value [4] was 0.01 % × 100.
